In ChEMBL document CHEMBL3885881, “DrugMatrix”:

Species: Rattus norvegicus
Assay: DrugMatrix - Regimen: Daily Repeat
Format: toxicity, organism-based, Sprague-Dawley
Design: regimen Daily Repeat, gender Male, age 6-8 weeks
Conditions: in vivo, po, route oral GAVAGE, vehicle .5 % CMC; for ABSOLUTE BASOPHIL / ABSOLUTE EOSINOPHIL / ABSOLUTE LYMPHOCYTE / ABSOLUTE MONOCYTE / ABSOLUTE SEGMENTED NEUTROPHIL / BASOPHIL / EOSINOPHIL / ERYTHROCYTE COUNT / HEMATOCRIT / HEMOGLOBIN / LEUKOCYTE COUNT / LYMPHOCYTE / MEAN CORPUSCULAR HEMOGLOBIN / MEAN CORPUSCULAR HEMOGLOBIN CONCENTRATION / MEAN CORPUSCULAR VOLUME / MONOCYTE / NEUTROPHIL / NUCLEATED RED BLOOD CELLS / PLATELET COUNT: tissue Blood; for ALANINE AMINOTRANSFERASE / ALBUMIN / ALKALINE PHOSPHATASE / ASPARTATE AMINOTRANSFERASE / BLOOD UREA NITROGEN / CARBON DIOXIDE / CHLORIDE / CHOLESTEROL / CREATINE PHOSPHOKINASE / CREATININE / GLUCOSE / LACTATE DEHYDROGENASE / LIPASE / PHOSPHORUS / POTASSIUM / SODIUM / TOTAL BILIRUBIN / TOTAL PROTEIN / URIC ACID: tissue Plasma
[1] = 0 mg/kg, 72 h, dose level Control, time 3 day
[2] = 0 mg/kg, 120 h, dose level Control, time 5 day
[3] = 30 mg/kg, 72 h, dose level Low, time 3 day
[4] = 30 mg/kg, 120 h, dose level Low, time 5 day

COc1ccc(/C=C/C(=O)Nc2ccccc2C(=O)O)cc1OC
ABSOLUTE BASOPHIL [1]: 0 CELLS/uL | ABSOLUTE EOSINOPHIL [1]: 222.83 CELLS/uL | ABSOLUTE LYMPHOCYTE [1]: 14453 CELLS/uL | ABSOLUTE MONOCYTE [1]: 0 CELLS/uL | ABSOLUTE SEGMENTED NEUTROPHIL [1]: 1490.83 CELLS/uL | BASOPHIL [1]: 0% | EOSINOPHIL [1]: 1.33% | ERYTHROCYTE COUNT [1]: 5.76 x10E6/uL | HEMATOCRIT [1]: 36.52% | HEMOGLOBIN [1]: 13.45 G/DL | LEUKOCYTE COUNT [1]: 16.17 x10E3/uL | LYMPHOCYTE [1]: 89.33% | MEAN CORPUSCULAR HEMOGLOBIN [1]: 23.37 pg | MEAN CORPUSCULAR HEMOGLOBIN CONCENTRATION [1]: 36.85 G/DL | MEAN CORPUSCULAR VOLUME [1]: 63.47 fL | MONOCYTE [1]: 0% | NEUTROPHIL [1]: 9.33% | NUCLEATED RED BLOOD CELLS [1]: 0 /100WBC | PLATELET COUNT [1]: 1239.5 x10E3/uL | ALANINE AMINOTRANSFERASE [1]: 43.83 u/L | ALBUMIN [1]: 4.27 G/DL | ALKALINE PHOSPHATASE [1]: 398.83 u/L | ASPARTATE AMINOTRANSFERASE [1]: 81.17 u/L | BLOOD UREA NITROGEN [1]: 17.67 mg/dL | CARBON DIOXIDE [1]: 27.5 mmol/L | CHLORIDE [1]: 99.17 MEQ/L | CHOLESTEROL [1]: 74 mg/dL | CREATINE PHOSPHOKINASE [1]: 331.5 u/L | CREATININE [1]: 0.2 mg/dL | GLUCOSE [1]: 171.33 mg/dL | LACTATE DEHYDROGENASE [1]: 241.67 u/L | LIPASE [1]: 9.5 u/L | PHOSPHORUS [1]: 12.25 mg/dL | POTASSIUM [1]: 6.33 MEQ/L | SODIUM [1]: 141.28 MEQ/L | TOTAL BILIRUBIN [1]: 0.15 mg/dL | TOTAL PROTEIN [1]: 5.98 G/DL | URIC ACID [1]: 1.63 mg/dL | ABSOLUTE BASOPHIL [2]: 0 CELLS/uL | ABSOLUTE EOSINOPHIL [2]: 148.67 CELLS/uL | ABSOLUTE LYMPHOCYTE [2]: 16020.5 CELLS/uL | ABSOLUTE MONOCYTE [2]: 29.17 CELLS/uL | ABSOLUTE SEGMENTED NEUTROPHIL [2]: 1468.33 CELLS/uL | BASOPHIL [2]: 0% | EOSINOPHIL [2]: 1% | ERYTHROCYTE COUNT [2]: 5.78 x10E6/uL | HEMATOCRIT [2]: 35.77% | HEMOGLOBIN [2]: 13.4 G/DL | LEUKOCYTE COUNT [2]: 17.67 x10E3/uL | LYMPHOCYTE [2]: 90.5% | MEAN CORPUSCULAR HEMOGLOBIN [2]: 23.22 pg | MEAN CORPUSCULAR HEMOGLOBIN CONCENTRATION [2]: 37.47 G/DL | MEAN CORPUSCULAR VOLUME [2]: 61.92 fL | MONOCYTE [2]: 0.17% | NEUTROPHIL [2]: 8.33% | NUCLEATED RED BLOOD CELLS [2]: 0.17 /100WBC | PLATELET COUNT [2]: 1255.5 x10E3/uL | ALANINE AMINOTRANSFERASE [2]: 46.5 u/L | ALBUMIN [2]: 4.38 G/DL | ALKALINE PHOSPHATASE [2]: 336 u/L | ASPARTATE AMINOTRANSFERASE [2]: 76.5 u/L | BLOOD UREA NITROGEN [2]: 20 mg/dL | CARBON DIOXIDE [2]: 27.5 mmol/L | CHLORIDE [2]: 101 MEQ/L | CHOLESTEROL [2]: 71.33 mg/dL | CREATINE PHOSPHOKINASE [2]: 231.83 u/L | CREATININE [2]: 0.37 mg/dL | GLUCOSE [2]: 168.83 mg/dL | LACTATE DEHYDROGENASE [2]: 174 u/L | LIPASE [2]: 8.67 u/L | PHOSPHORUS [2]: 11.48 mg/dL | POTASSIUM [2]: 6.82 MEQ/L | SODIUM [2]: 143.8 MEQ/L | TOTAL BILIRUBIN [2]: 0.2 mg/dL | TOTAL PROTEIN [2]: 5.98 G/DL | URIC ACID [2]: 1.83 mg/dL | ABSOLUTE BASOPHIL [3]: 0 CELLS/uL | ABSOLUTE EOSINOPHIL [3]: 217.33 CELLS/uL | ABSOLUTE LYMPHOCYTE [3]: 12060 CELLS/uL | ABSOLUTE MONOCYTE [3]: 0 CELLS/uL | ABSOLUTE SEGMENTED NEUTROPHIL [3]: 1122.67 CELLS/uL | BASOPHIL [3]: 0% | EOSINOPHIL [3]: 1.67% | ERYTHROCYTE COUNT [3]: 5.52 x10E6/uL | HEMATOCRIT [3]: 34.6% | HEMOGLOBIN [3]: 13.1 G/DL | LEUKOCYTE COUNT [3]: 13.4 x10E3/uL | LYMPHOCYTE [3]: 90% | MEAN CORPUSCULAR HEMOGLOBIN [3]: 23.77 pg | MEAN CORPUSCULAR HEMOGLOBIN CONCENTRATION [3]: 37.9 G/DL | MEAN CORPUSCULAR VOLUME [3]: 62.73 fL | MONOCYTE [3]: 0% | NEUTROPHIL [3]: 8.33% | NUCLEATED RED BLOOD CELLS [3]: 0 /100WBC | PLATELET COUNT [3]: 1155.33 x10E3/uL | ALANINE AMINOTRANSFERASE [3]: 48.67 u/L | ALBUMIN [3]: 4.13 G/DL | ALKALINE PHOSPHATASE [3]: 344.33 u/L | ASPARTATE AMINOTRANSFERASE [3]: 77 u/L | BLOOD UREA NITROGEN [3]: 14.67 mg/dL | CARBON DIOXIDE [3]: 23.67 mmol/L | CHLORIDE [3]: 103.67 MEQ/L | CHOLESTEROL [3]: 71 mg/dL | CREATINE PHOSPHOKINASE [3]: 180 u/L | CREATININE [3]: 0.19 mg/dL | GLUCOSE [3]: 159.67 mg/dL | LACTATE DEHYDROGENASE [3]: 96.67 u/L | LIPASE [3]: 8 u/L | PHOSPHORUS [3]: 12.47 mg/dL | POTASSIUM [3]: 5.88 MEQ/L | SODIUM [3]: 144.63 MEQ/L | TOTAL BILIRUBIN [3]: 0.17 mg/dL | TOTAL PROTEIN [3]: 5.67 G/DL | URIC ACID [3]: 1.47 mg/dL | ABSOLUTE BASOPHIL [4]: 0 CELLS/uL | ABSOLUTE EOSINOPHIL [4]: 278.67 CELLS/uL | ABSOLUTE LYMPHOCYTE [4]: 14764.67 CELLS/uL | ABSOLUTE MONOCYTE [4]: 0 CELLS/uL | ABSOLUTE SEGMENTED NEUTROPHIL [4]: 1590 CELLS/uL | BASOPHIL [4]: 0% | EOSINOPHIL [4]: 1.67% | ERYTHROCYTE COUNT [4]: 5.36 x10E6/uL | HEMATOCRIT [4]: 34.2% | HEMOGLOBIN [4]: 13.03 G/DL | LEUKOCYTE COUNT [4]: 16.63 x10E3/uL | LYMPHOCYTE [4]: 88.67% | MEAN CORPUSCULAR HEMOGLOBIN [4]: 24.4 pg | MEAN CORPUSCULAR HEMOGLOBIN CONCENTRATION [4]: 38.1 G/DL | MEAN CORPUSCULAR VOLUME [4]: 63.97 fL | MONOCYTE [4]: 0% | NEUTROPHIL [4]: 9.67% | NUCLEATED RED BLOOD CELLS [4]: 0.33 /100WBC | PLATELET COUNT [4]: 1260.33 x10E3/uL | ALANINE AMINOTRANSFERASE [4]: 59 u/L | ALBUMIN [4]: 4.5 G/DL | ALKALINE PHOSPHATASE [4]: 404 u/L | ASPARTATE AMINOTRANSFERASE [4]: 84.33 u/L | BLOOD UREA NITROGEN [4]: 18.33 mg/dL | CARBON DIOXIDE [4]: 25.33 mmol/L | CHLORIDE [4]: 103 MEQ/L | CHOLESTEROL [4]: 75.67 mg/dL | CREATINE PHOSPHOKINASE [4]: 221 u/L | CREATININE [4]: 0.18 mg/dL | GLUCOSE [4]: 161.67 mg/dL | LACTATE DEHYDROGENASE [4]: 269 u/L | LIPASE [4]: 9 u/L | PHOSPHORUS [4]: 12.57 mg/dL | POTASSIUM [4]: 6.47 MEQ/L | SODIUM [4]: 145.07 MEQ/L | TOTAL BILIRUBIN [4]: 0.1 mg/dL | TOTAL PROTEIN [4]: 6.03 G/DL | URIC ACID [4]: 1.6 mg/dL
